Molecular target: GABA A receptor α1β2γ2S (Rattus norvegicus, UniProt P18508+P62813+P63138)
Assay: two-microelectrode voltage clamp, Xenopus oocytes, potentiation of GABA current
Assay type: cell-based

GABA A receptor α1β2γ2S, sequence (P62813 28-455): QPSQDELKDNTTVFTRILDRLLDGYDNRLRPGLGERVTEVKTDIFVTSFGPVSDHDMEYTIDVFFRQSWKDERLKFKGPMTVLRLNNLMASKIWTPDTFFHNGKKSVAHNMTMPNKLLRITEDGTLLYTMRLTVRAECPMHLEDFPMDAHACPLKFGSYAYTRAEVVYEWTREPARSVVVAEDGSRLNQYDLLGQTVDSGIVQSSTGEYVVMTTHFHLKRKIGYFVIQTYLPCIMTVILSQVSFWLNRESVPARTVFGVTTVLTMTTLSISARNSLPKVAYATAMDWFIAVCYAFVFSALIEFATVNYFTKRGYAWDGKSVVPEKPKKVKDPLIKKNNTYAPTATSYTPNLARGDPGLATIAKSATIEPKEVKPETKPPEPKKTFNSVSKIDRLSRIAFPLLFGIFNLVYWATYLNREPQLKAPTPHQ
GABA A receptor α1β2γ2S, sequence (P63138 26-474): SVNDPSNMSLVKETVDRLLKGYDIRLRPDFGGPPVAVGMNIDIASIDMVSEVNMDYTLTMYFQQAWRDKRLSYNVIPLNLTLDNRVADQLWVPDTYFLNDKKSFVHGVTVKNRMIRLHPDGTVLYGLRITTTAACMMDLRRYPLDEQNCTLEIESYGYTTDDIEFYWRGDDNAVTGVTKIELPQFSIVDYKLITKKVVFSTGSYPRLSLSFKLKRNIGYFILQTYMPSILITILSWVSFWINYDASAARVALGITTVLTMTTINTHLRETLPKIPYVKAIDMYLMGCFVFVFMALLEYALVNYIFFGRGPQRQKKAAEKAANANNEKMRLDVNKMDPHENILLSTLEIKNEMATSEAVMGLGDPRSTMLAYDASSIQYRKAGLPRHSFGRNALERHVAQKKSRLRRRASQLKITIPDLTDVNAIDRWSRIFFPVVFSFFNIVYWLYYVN
GABA A receptor α1β2γ2S, sequence (P18508 39-466): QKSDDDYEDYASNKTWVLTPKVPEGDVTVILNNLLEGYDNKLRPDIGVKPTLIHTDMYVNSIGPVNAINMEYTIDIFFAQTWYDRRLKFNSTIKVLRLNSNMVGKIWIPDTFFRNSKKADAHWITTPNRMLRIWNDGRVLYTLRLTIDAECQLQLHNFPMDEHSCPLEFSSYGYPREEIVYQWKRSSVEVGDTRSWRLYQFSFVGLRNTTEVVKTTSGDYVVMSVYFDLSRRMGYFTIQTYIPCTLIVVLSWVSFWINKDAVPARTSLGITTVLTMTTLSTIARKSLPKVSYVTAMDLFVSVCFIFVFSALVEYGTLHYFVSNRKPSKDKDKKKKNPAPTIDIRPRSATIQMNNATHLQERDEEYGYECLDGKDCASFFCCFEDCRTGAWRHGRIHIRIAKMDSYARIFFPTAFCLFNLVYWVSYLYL

| EC50 [µM] | SMILES |
| --- | --- |
| 79.2 ± 19.4 | COc1cc(C[C@@H](C)[C@@H](C)Cc2ccc(O)c(OC)c2)ccc1O [compound 5, dihydroguaiaretic acid] |
| 118 ± 29.9 | CC1(C)CCC[C@]1(C)C1=CC=C(C(=O)O)CC1 [compound 12, (−)-5,6-dihydrocuparenic acid] |
| 70.6 ± 12.2 | C=CC(=C)CC[C@@H](OC(=O)/C=C/c1ccccc1)C(C)(C)O [compound 7, (+)-6-cinnamoyl-6,7-dihydro-7-myrceneol] |
| 31.5 ± 7.1 | COc1cc(C[C@H](C)[C@H](C)Cc2ccc3c(c2)OCO3)ccc1O [compound 11, anwulignan] |
| 54.6 ± 28.8 | COc1cc(C[C@H](C)[C@H](C)Cc2ccc(OC)c(OC)c2)ccc1O [compound 8, mono-methyl dihydroguaiaretic acid] |

From PMC3201904 (Phytochemistry, 2011)
